This assay deals with recombinant human Cathepsin S (Homo sapiens, UniProt P25774). Nature of the assay: Cathepsin S assay procedure: inhibition of enzyme activity, fluorescence of liberated aminomethylcoumarin. Format: biochemical. The following applies: activated recombinant human cathepsin S; substrate Z-Val-Val-Arg-AMC; sodium acetate pH5.5; fluorescence at 20 minutes; dose response curve; read-out: pIC50 (negative logarithm of the IC50 concentration) for inhibition of human cathepsin S (converted). As for the experimental part: 25µl of a 2mg/l solution of activated recombinant human cathepsin S, in assay buffer, is then added to the well, yielding a final inhibitor concentration of 10µM.
recombinant human Cathepsin S, sequence (P25774 115-331): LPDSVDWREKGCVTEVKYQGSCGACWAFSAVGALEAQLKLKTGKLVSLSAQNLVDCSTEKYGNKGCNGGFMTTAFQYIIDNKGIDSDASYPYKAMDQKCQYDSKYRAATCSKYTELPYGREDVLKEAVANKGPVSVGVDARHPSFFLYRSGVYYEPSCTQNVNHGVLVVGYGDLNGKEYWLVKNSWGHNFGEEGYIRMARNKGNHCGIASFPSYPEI
Enzyme activity is determined by measuring the fluorescence of the liberated aminomethylcoumarin at […] using 390nm excitation, at 20 minutes. Percentage enzyme activity is calculated by comparison of this activity to that of a solution containing no inhibitor.

As for `CCOc1ccc(-c2cc3c(ncn3CCCC(=O)O)c(C#N)n2)cc1C(F)(F)F` [Example 4, [4-Cyano-6-(4-ethoxy-3-trifluoromethyl-phenyl)-imidazo[4,5-c]pyridin-1-yl]-butyric acid], the IC50 is under 100 nM.
As for `CCOc1ccc(-c2cc3[nH]c(CN4CCN(CCO)CC4)nc3c(C#N)n2)cc1C(F)(F)F` [Example 13l, 6-(4-Ethoxy-3-trifluoromethyl-phenyl)-2-[4-(2-hydroxy-ethyl)-piperazin-1-ylmethyl]-1H-imidazo[4,5-c]pyridine-4-carbonitrile], the IC50 was under 100 nM.

Source of the values: patent EP1979351B1, “6-PHENYL-1H-IMIDAZO[4, 5-C]PYRIDINE-4-CARBONITRILE DERIVATIVES AS CATHEPSIN K AND S INHIBITORS” (N.V. Organon, priority 2006, dated 2007).
